Test results published in patent US20260364030A1, “NOVEL SELECTIVE INHIBITORS OF LYSYL OXIDASES” (Syntara Limited, priority 2022, published 2026).

Experiments:
LOXL2 = molecular target: T1, LOXL2 (Homo sapiens, UniProt Q9Y4K0); experiment: LOXL2 inhibition, Amplex Red oxidation assay; type: biochemical; details: 2 h incubation with enzyme at 37 °C; read-out: Human LOXL2 Activity IC50
T1 sequence (Q9Y4K0 26-774): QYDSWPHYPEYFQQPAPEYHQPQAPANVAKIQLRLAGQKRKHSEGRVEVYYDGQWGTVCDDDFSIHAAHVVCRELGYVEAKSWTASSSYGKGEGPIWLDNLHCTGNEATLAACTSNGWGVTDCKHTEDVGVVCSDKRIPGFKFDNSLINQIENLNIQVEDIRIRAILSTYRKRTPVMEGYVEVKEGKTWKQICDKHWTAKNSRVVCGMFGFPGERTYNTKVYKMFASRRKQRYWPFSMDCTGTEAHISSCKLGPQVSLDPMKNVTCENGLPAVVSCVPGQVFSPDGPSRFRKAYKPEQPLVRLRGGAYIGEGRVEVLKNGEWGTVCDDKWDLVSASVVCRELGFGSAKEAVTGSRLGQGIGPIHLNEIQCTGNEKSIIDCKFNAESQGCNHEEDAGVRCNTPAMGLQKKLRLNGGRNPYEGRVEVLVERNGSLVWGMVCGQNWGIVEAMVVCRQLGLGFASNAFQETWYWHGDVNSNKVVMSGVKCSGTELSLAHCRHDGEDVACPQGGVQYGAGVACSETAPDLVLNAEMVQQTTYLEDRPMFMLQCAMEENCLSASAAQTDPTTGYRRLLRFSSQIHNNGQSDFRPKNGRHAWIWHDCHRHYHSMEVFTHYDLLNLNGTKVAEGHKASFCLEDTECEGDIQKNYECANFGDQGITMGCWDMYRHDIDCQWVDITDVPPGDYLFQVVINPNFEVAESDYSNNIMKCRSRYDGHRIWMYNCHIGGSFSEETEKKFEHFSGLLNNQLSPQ
Experimental: (§1) LOX and LOXL protein family members can be acquired as recombinant active proteins from commercial sources, or extracted from animal tissues like bovine aorta, tendons, pig skin; or prepared from cell cultures. The inhibitory effects of the compounds of the present invention were tested against the given LOX or LOXL preparation using a method based on the detection of hydrogen peroxide with an Amplex Red oxidation assay [Zhou et al, 1997]. The assay was developed using either 384 or 96 well format. Briefly, in a standard black, clear bottom 384 well plate assay 25 µL of a dilution of any of the isoenzymes and orthologues in 1.2 M urea, 50 mM sodium borate buffer (pH 8.2) were added into each well in the presence of […] and 0.5 mM pargyline (to inhibit SSAO and MAO-B and MAO-A, respectively; not necessary if the enzyme is from a recombinant or purified form). […] of a reaction mixture containing twice the KM concentration of putrescine (Sigma Aldrich, e.g. 20 mM for LOX and LOXL1 or 10 mM for LOXL2 and 4 mM for LOXL3 and LOXL4), 120 µM Amplex Red (Thermo Fisher Scientific) and 1.5 U/mL horseradish peroxidase (Sigma Aldrich) prepared in 1.2 M urea, 50 mM sodium borate buffer (pH 8.2) were then added to the corresponding wells. The above volumes were doubled in the case of 96 wells plate. The fluorescence (RFU) was read every 2.5 min for 30 min at 37 °C, excitation 544 nm and emission 590 (Optima; BMG labtech). The slope/min of the kinetics for each well was calculated using MARS data analysis software (BMG labtech) and this value was used to deduce the IC50 value (Dotmatics). The ability of the inventive compounds to inhibit the amine oxidase activity of LOX and other family members is shown in Table 5.

Bovine LOX = molecular target: T2, Bovine LOX (Bos taurus, UniProt P33072); experiment: LOX inhibition, hydrogen peroxide Amplex Red oxidation assay; type: biochemical; details: 2 h incubation with enzyme at 37 °C
T2 sequence (P33072 170-418): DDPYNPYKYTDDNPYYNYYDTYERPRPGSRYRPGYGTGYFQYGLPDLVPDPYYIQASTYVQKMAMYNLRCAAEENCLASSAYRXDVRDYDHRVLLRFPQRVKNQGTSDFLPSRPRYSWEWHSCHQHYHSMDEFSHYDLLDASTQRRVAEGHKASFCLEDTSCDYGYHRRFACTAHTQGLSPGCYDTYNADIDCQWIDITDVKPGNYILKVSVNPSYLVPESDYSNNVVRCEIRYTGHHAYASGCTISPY
Experimental: as §1

| SMILES | IC50 (LOXL2) [nM] | IC50 (Bovine LOX) [nM] |
| --- | --- | --- |
| NC/C(=C\F)CS(=O)(=O)c1cccc(-c2nccs2)c1 [Compound 16, (E)-3-fluoro-2-(((3-(thiazol-2-yl)phenyl)sulfonyl)methyl)prop-2-en-1-amine] | < 2000 | < 2000 |
| NC/C(=C\F)CS(=O)(=O)c1cccc(C(F)(F)F)c1 [Compound 10, (E)-3-fluoro-2-(((3-(trifluoromethyl)phenyl)sulfonyl)methyl)prop-2-en-1-amine] | < 2000 | < 2000 |
| NC/C(=C\F)CS(=O)(=O)c1cccc(F)c1 [Compound 5, (E)-3-fluoro-2-(((3-fluorophenyl)sulfonyl)methyl)prop-2-en-1-amine] | < 2000 | < 2000 |
| Cc1ccccc1S(=O)(=O)C/C(=C/F)CN [Compound 3, (E)-3-fluoro-2-((o-tolylsulfonyl)methyl)prop-2-en-1-amine] | < 2000 | < 5000 |
| NC/C(=C\F)CS(=O)(=O)c1cccc2cccnc12 [Compound 7, (E)-3-fluoro-2-((quinolin-8-ylsulfonyl)methyl)prop-2-en-1-amine] | < 2000 | < 10000 |
| NC/C(=C\F)CS(=O)(=O)c1cccc(S(=O)(=O)c2ccccc2)c1 [Compound 14, (E)-3-fluoro-2-(((3-(phenylsulfonyl)phenyl)sulfonyl)methyl)prop-2-en-1-amine] | < 2000 | < 2000 |
| N#Cc1cccc(S(=O)(=O)C/C(=C/F)CN)c1 [Compound 2, (E)-3-((2-(aminomethyl)-3-fluoroallyl)sulfonyl)benzonitrile] | < 2000 | < 2000 |
| Cc1ccc(S(=O)(=O)C/C(=C/F)CN)cc1Cl [Compound 8, (E)-2-(((3-chloro-4-methylphenyl)sulfonyl)methyl)-3-fluoroprop-2-en-1-amine] | < 2000 | < 2000 |
| NC/C(=C\F)CS(=O)(=O)c1ccccc1Cl [Compound 6, (E)-2-(((2-chlorophenyl)sulfonyl)methyl)-3-fluoroprop-2-en-1-amine] | < 5000 | < 5000 |
| NC/C(=C\F)CS(=O)(=O)c1cccc(Br)c1 [Compound 15, (E)-2-(((3-bromophenyl)sulfonyl)methyl)-3-fluoroprop-2-en-1-amine] | < 2000 | < 2000 |
| CC(C)c1cccc(S(=O)(=O)C/C(=C/F)CN)c1 [Compound 11, (E)-3-fluoro-2-(((3-isopropylphenyl)sulfonyl)methyl)prop-2-en-1-amine] | < 2000 | < 2000 |
| Cc1ccc(S(=O)(=O)C/C(=C/F)CN)cc1C [Compound 9, (E)-2-(((3,4-dimethylphenyl)sulfonyl)methyl)-3-fluoroprop-2-en-1-amine] | < 2000 | < 2000 |
| N#Cc1ccccc1S(=O)(=O)C/C(=C/F)CN [Compound 12, (E)-2-((2-(aminomethyl)-3-fluoroallyl)sulfonyl)benzonitrile] | < 5000 | < 5000 |
| Cc1ncc(-c2cccc(S(=O)(=O)C/C(=C/F)CN)c2)s1 [Compound 17, (E)-3-fluoro-2-(((3-(2-methylthiazol-5-yl)phenyl)sulfonyl)methyl)prop-2-en-1-amine] | < 2000 | < 2000 |
| NC/C(=C\F)CS(=O)(=O)c1cccc([N+](=O)[O-])c1 [Compound 13, (E)-3-fluoro-2-(((3-nitrophenyl)sulfonyl)methyl)prop-2-en-1-amine] | < 2000 | < 2000 |

Second part, the molecule after the results:

| IC50 (LOXL2) [nM] | IC50 (Bovine LOX) [nM] | SMILES |
| --- | --- | --- |
| < 2000 | < 2000 | NC/C(=C\F)CS(=O)(=O)c1cccc(C(N)=O)c1 [Compound 27, (E)-3-((2-(aminomethyl)-3-fluoroallyl)sulfonyl)benzamide] |
| < 5000 | < 10000 | NC/C(=C\F)CS(=O)(=O)c1cccc(C(=O)O)c1 [Compound 26, (E)-3-((2-(aminomethyl)-3-fluoroallyl)sulfonyl)benzoic acid] |
| < 2000 | < 2000 | NC/C(=C\F)CS(=O)(=O)c1ccc2ccccc2c1 [Compound 22, (E)-3-fluoro-2-((naphthalen-2-ylsulfonyl)methyl)prop-2-en-1-amine] |
| < 2000 | < 2000 | NC/C(=C\F)CS(=O)(=O)c1cccc(Cl)c1 [Compound 19, (E)-2-(((3-chlorophenyl)sulfonyl)methyl)-3-fluoroprop-2-en-1-amine] |
| < 2000 | < 2000 | Cc1ccc(S(=O)(=O)C/C(=C/F)CN)cc1C#N [Compound 29, (E)-5-((2-(aminomethyl)-3-fluoroallyl)sulfonyl)-2-methylbenzonitrile] |
| < 2000 | < 2000 | NC/C(=C\F)CS(=O)(=O)c1cc(Cl)ccc1Cl [Compound 32, (E)-2-(((2,5-dichlorophenyl)sulfonyl)methyl)-3-fluoroprop-2-en-1-amine] |
| < 2000 | < 2000 | CS(=O)(=O)c1cccc(S(=O)(=O)C/C(=C/F)CN)c1 [Compound 23, (E)-3-fluoro-2-(((3-(methylsulfonyl)phenyl)sulfonyl)methyl)prop-2-en-1-amine] |
| < 10000 | < 10000 | NC/C(=C\F)CS(=O)(=O)c1cccc2c1OCCO2 [Compound 33, (E)-2-(((2,3-dihydrobenzo[b][1,4]dioxin-5-yl)sulfonyl)methyl)-3-fluoroprop-2-en-1-amine] |
| < 2000 | < 2000 | NC/C(=C\F)CS(=O)(=O)c1ccc2c(c1)OCCO2 [Compound 25, (E)-2-(((2,3-dihydrobenzo[b][1,4]dioxin-6-yl)sulfonyl)methyl)-3-fluoroprop-2-en-1-amine] |
| < 2000 | < 5000 | N#Cc1ccc(S(=O)(=O)C/C(=C/F)CN)cc1 [Compound 28, (E)-4-((2-(aminomethyl)-3-fluoroallyl)sulfonyl)benzonitrile] |
| < 5000 | < 10000 | NC/C(=C\F)CS(=O)(=O)c1cccc(CN2CCCCCC2=O)c1 [Compound 36, (E)-1-(3-((2-(aminomethyl)-3-fluoroallyl)sulfonyl)benzyl)azepan-2-one] |
| < 2000 | < 2000 | Cc1cccc(S(=O)(=O)C/C(=C/F)CN)c1 [Compound 20, (E)-3-fluoro-2-((m-tolylsulfonyl)methyl)prop-2-en-1-amine] |
| < 5000 | < 5000 | [2H]c1c([2H])c([2H])c(S(=O)(=O)C/C(=C/F)CN)c([2H])c1[2H] [Compound 30, (E)-3-fluoro-2-(((phenyl-d5)sulfonyl)methyl)prop-2-en-1-amine] |
| < 2000 | < 2000 | COc1cccc(S(=O)(=O)C/C(=C/F)CN)c1 [Compound 24, (E)-3-fluoro-2-(((3-methoxyphenyl)sulfonyl)methyl)prop-2-en-1-amine] |
| < 10000 | < 10000 | NC/C(=C\F)CS(=O)(=O)c1ccc(C(=O)O)cc1 [Compound 31, (E)-4-((2-(aminomethyl)-3-fluoroallyl)sulfonyl)benzoic acid] |
| < 2000 | < 2000 | NC/C(=C/F)CS(=O)(=O)c1ccccc1 [Compound 37, (Z)-3-fluoro-2-((phenylsulfonyl)methyl)prop-2-en-1-amine] |
|  | < 5000 | NC/C(=C\F)CS(=O)(=O)c1cccc(-n2nccn2)c1 [Compound 34, (E)-2-(((3-(2H-1,2,3-triazol-2-yl)phenyl)sulfonyl)methyl)-3-fluoroprop-2-en-1-amine] |
